The values that follow come from patent US8008346B2, “Chemotherapeutic agents for inhibition of protein translation” (The Royal University for the Advancement of Learning/McGill …, priority 2006, dated 2011).

One assay concerns 4E-BP. Description: Western blot of 4E-BP and S6K phosphorylation status in MEFs stimulated with insulin (± rapamycin). Format: cell-based, murine. On the procedure:
(§1) FIG. 14. (A) Western blot analysis of 4E-BP and S6K phosphorylation status in MEFs (murine embryo fibroblasts) stimulated with insulin (±rapamycin). Antibodies to pan-4E-BP and eIF4E antibodies were used. The phosphorylation status of 4E-BP is evident by a shift to a slower mobility species (shift from α to γ species). […] (B) Clofoctol inhibits protein synthesis in cells. MEF cells were incubated for 45 minutes in the presence of increasing amounts of clofoctol in methionine-free culture media. S^35-methionine was then added to the cell culture and incubation continued for 15 minutes. The amount of S^35-methionine incorporated into newly synthesized proteins was detected by TCA precipitation of the cell lysate following by scintillation counting. Results are expressed relative to the incorporation in the presence of 0.5% DMSO.

The subject of assay [1] is Lymphomas derived from Eμ-myc, Eμ-myc×Tsc2(−/+), or Bcl2/Eμ-myc mice. Nature of the assay: Growth/cytotoxicity in lymphoma cell lines in culture. It counts as cell-based. From the text: FIG. 15. Clofoctol Inhibits growth of tumor cell lines in culture. Lymphomas derived from Eμ-myc, Eμ-myc×Tsc2(−/+), or Bcl2/Eμ-myc mice were exposed to the indicated concentrations of Clofoctol and cytotoxicity monitored.

The next assay relates to MEF cells. Nature of the assay: S35-methionine incorporation (protein synthesis) in MEF cells. It counts as cell-based, murine. As to conditions: 45 min + 15 min labeling, relative to 0.5% DMSO. As to the method:
as §1

The next assay relates to human tumor stem cell. As to conditions: in vitro; cited from earlier work.
For assay [2], the system named is HeLa cells. Description: 3H-uridine incorporation (RNA synthesis) in HeLa cells. It counts as cell-based. As to conditions: 50 μM, 60 min, normalized to DMSO, positive control, data not shown. As to the method: (§2) FIG. 4. Effect of hippuristanol on protein, RNA and DNA synthesis in cells. A. Relative rate of ^35S-methionine incorporation as a function of hippuristanol concentration in HeLa cells. Cells were exposed to the indicated concentration of compound for 50 min., followed by a 10 min. labeling period with ^35S-methionine in the presence of compound. The rate of protein synthesis (TCA precipitable cpm) obtained in the presence of compound was normalized to the rate obtained in the presence of DMSO (which was set at 1). The rate of protein synthesis in the control reactions (containing DMSO vehicle) averaged ˜700,000 cpm/10 min. labeling period. Results are shown for two experiments and the error of the mean is presented. The relative rate of ^35S-methionine incorporation in HeLa cells exposed to 10 μM anisomycin (positive control) for 60 min. was ˜0.02 (data not shown). B. Effect of hippuristanol on protein (gray circles), DNA (open squares), and RNA (solid squares) synthesis in HeLa cells. […] Gradients were analyzed by piercing the tube with a Brandel tube piercer, passing 60% sucrose through the bottom of the tube, and monitoring the absorbance of the material eluting from the tube using an ISCO UA-6 UV Detector.

A further assay has as its system HeLa cell polyribosomes. Nature of the assay: HeLa cell polyribosome profile on sucrose gradients. Format: cell-based. As to conditions: 10 uM, 20 min. On the procedure:
as §2

In assay [3] the test system is HeLa cells. Description: 35S-methionine incorporation (protein synthesis) in HeLa cells. Format: cell-based. As to conditions: HeLa cells, 10 μM, 60 min; normalized to DMSO (set at 1); positive control, data not shown. On the procedure:
FIG. 4. Effect of hippuristanol on protein, RNA and DNA synthesis in cells. A. Relative rate of ^35S-methionine incorporation as a function of hippuristanol concentration in HeLa cells. Cells were exposed to the indicated concentration of compound for 50 min., followed by a 10 min. labeling period with ^35S-methionine in the presence of compound. The rate of protein synthesis (TCA precipitable cpm) obtained in the presence of compound was normalized to the rate obtained in the presence of DMSO (which was set at 1). The rate of protein synthesis in the control reactions (containing DMSO vehicle) averaged ˜700,000 cpm/10 min. labeling period. Results are shown for two experiments and the error of the mean is presented. The relative rate of ^35S-methionine incorporation in HeLa cells exposed to 10 μM anisomycin (positive control) for 60 min. was ˜0.02 (data not shown). B. Effect of hippuristanol on protein (gray circles), DNA (open squares), and RNA (solid squares) synthesis in HeLa cells. The rate of macromolecular synthesis (TCA precipitable cpm for a 10 min. labeling period) obtained in the presence of 1 μM hippuristanol was normalized to the rate obtained in the presence of DMSO and is plotted. The results are shown for two experiments and the error of the mean is presented. The rate of protein, RNA and DNA synthesis in the control reactions (containing DMSO vehicle) averaged ˜900,000 cpm/10 min, ˜16,000 cpm/10 min. and 7,000 cpm/10 min labeling, respectively. The relative rate of ^35S-methionine incorporation by HeLa cells exposed to 10 μM anisomycin for 60 min. (positive control for inhibition of protein synthesis) was 0.02 (data not shown). The relative rate of ^3H-uridine incorporation by HeLa cells exposed to 50 μM actinomycin (positive control for inhibition of RNA synthesis) for 60 min. was 0.01 (data not shown). C. […] Gradients were analyzed by piercing the tube with a Brandel tube piercer, passing 60% sucrose through the bottom of the tube, and monitoring the absorbance of the material eluting from the tube using an ISCO UA-6 UV Detector.

In assay [4] the test system is Akt-driven Eμ-myc lymphomas. Nature of the assay: Akt-driven Eμ-myc lymphoma model, combination with doxorubicin. As to conditions: hippurin-1 5 mg/kg every day for 5 days, doxorubicin 10 mg/kg once on day 2 of 5. Format: in vivo, Mice. On the procedure:
FIG. 13. Efficacy of hippurin-1 on Akt-driven Eμ-myc lymphomas when administered in combination with doxorubicin. Mice bearing Akt-driven Eμ-myc lymphomas where injected with either doxorubicin (10 mg/kg once on day 2 of 5), hippurin-1 alone (5 mg/kg every day for 5 days) or hippurin-1 and doxorubicin (hippurin-1: 5 mg/kg every day for 5 days, doxorubicin: 10 mg/kg once on day 2 of 5). Tumor size was monitored by (A) palpation (blinded study) and (B) blood smears on days 1, 3 and 5 during the treatment to assess the size of the lymphomas and the number of leukemic cells, respectively.

The next assay has as its system murine leukemia cells. As to conditions: also in a number of human tumor xenografts; cited from earlier work.

Numbered stars: 1 amine (or outer) side, 2 acyl side, 3 side chain; on linkers, the order of the positions; unused ones are H or OH. Bridge positions count the residues as written; N and C are the ends. Square brackets hold non-standard residues; d marks the D form. Peptide text beside a SMILES is read from it. I, II: the chains in the order shown. Actinocin(9to1) = Cc1c2oc3c(C)ccc(C(=O)[*:1])c3nc-2c(C(=O)[*:2])c(N)c1=O; NMeV = CN[C@H](C(=O)O)C(C)C; Sar = CNCC(=O)O

Take `CC(C)(C)CC(C)(C)c1ccc(O)c(Cc2ccc(Cl)cc2Cl)c1` [Clofoctol]: in the assay with 4E-BP (MEF cells, in the presence or absence of rapamycin), the “phosphorylation status of 4E-BP” value was “causes dephosphorylation of 4E-BP”. In the assay on 4E-BP (MEFs, FIG. 14A lane 4 vs 3), the “S6 phosphorylation in the presence of rapamycin” value is listed as “antagonizes rapamycin's block of S6 phosphorylation”. In assay [1], the “growth of tumor cell lines in culture” value is given as “Inhibits”. In addition, the “protein synthesis in cells” value with MEF cells is recorded as “inhibits”.
Regarding `CC[C@H](C)[C@H]1NC(=O)[C@@H](NC(=O)[C@@H](CC(C)C)N(C)C(=O)[C@@H]2CCCN2C(=O)C(C)O)[C@@H](C)OC(=O)[C@H](Cc2ccc(OC)cc2)N(C)C(=O)[C@@H]2CCCN2C(=O)[C@H](CC(C)C)NC(=O)[C@@H](C)C(=O)[C@H](C(C)C)OC(=O)C[C@@H]1O` (stereo partly shown) [Didemnin B], in the assay with human tumor stem cell, the “concentrations inhibiting cell growth” value is 1 to 100 nM.
As to `Cc1c2oc3c(C)ccc(C(=O)N[C@@H]4C(=O)N[C@H](C(C)C)C(=O)N5CCC[C@H]5C(=O)N(C)CC(=O)N(C)[C@@H](C(C)C)C(=O)O[C@@H]4C)c3nc-2c(C(=O)N[C@@H]2C(=O)N[C@H](C(C)C)C(=O)N3CCC[C@H]3C(=O)N(C)CC(=O)N(C)[C@@H](C(C)C)C(=O)O[C@@H]2C)c(N)c1=O` [actinomycin] (I: T[dV]P[Sar][NMeV] / II: T[dV]P[Sar][NMeV]; ester I:1-I:C, II:1-II:C; linker I:N-II:N via Actinocin(9to1)), in the assay on HeLa cells [2], the “relative rate of 3H-uridine incorporation” value is recorded as 0.01.
With `COc1ccc(C[C@H]2NC[C@H](O)[C@H]2OC(C)=O)cc1` [anisomycin, reference compound], the “effect on HeLa cell polyribosomes” value in the assay on HeLa cell polyribosomes was “blocked elongation and caused an accumulation of ribosomes in polysomes”. The “relative rate of 35S-methionine incorporation” value with HeLa cells [3] is approximately 0.02.
Consider `CC(=O)O[C@@H]1C[C@@]2(C)[C@@H](CC[C@@H]3[C@@H]2[C@@H](O)C[C@@]2(C)[C@H]3C[C@@H]3O[C@@]4(C[C@H](C)C(C)(C)O4)[C@](C)(O)[C@@H]32)C[C@@H]1O` [hippurin-1], for which the “adjuvant effect to doxorubicin in a mouse lymphoma model” value in [4] was “can act as adjuvant”.
On to dehydrodidemnin 6, for which the “activity relative to didemnin B” value with murine leukemia cells is “ten times more active”.
